The results in this text go back to patent US20050267156A1, “Broadspectrum 2-amino-benzothiazole sulfonamide hiv protease inhibitors” (Tibotec Pharmaceuticals Ltd., priority 2002, published 2005).

Common to all, as to assay type: cell-based
For data set [1], the system named is HIV-1 strain LAI. As to the kind of experiment: Cellular anti-HIV assay (MT4/MTT), wild type. Conditions: Human immunodeficiency virus 1; wild type HIV-1 strain LAI, MT4 cells; read-out: WT (pEC50) (converted).
The subject of data set [2] is mutant HIV strain A. As to the kind of experiment: microbe, parasite or virus in culture.
The subject of data set [3] is mutant HIV strain B. Kind of data set: microbe, parasite or virus in culture.
The subject of data set [4] is mutant HIV strain C. Kind of data set: microbe, parasite or virus in culture.
Data set [5] has as its system mutant HIV strain D. As to the kind of experiment: microbe, parasite or virus in culture.
For data set [6], the system named is mutant HIV strain E. As to the kind of experiment: microbe, parasite or virus in culture.
The nature of data set [7]: Toxicity on mock-infected cells (MTT). As to conditions: human.
Data set [8] relates to mutant HIV protease viruses. As to the kind of experiment: Panel of more than 20 mutant proteases.
[9] abbreviates: FR=EC50 (mutant strain)/EC50 (HIV-1 strain LAI).

Where two headings read alike, the source gives them in different places.

Take `CC(C)CN(C[C@@H](O)[C@H](Cc1ccccc1)NC(=O)OC1COC2OCCC12)S(=O)(=O)c1ccc2nc(N)sc2c1` (stereo partly drawn) [Compound 1, {(1S,2R)-3-[(2-amino-benzothiazole-6-sulfonyl)-isobutyl-amino]-1-benzyl-2-hydroxypropyl}-carbamic acid hexahydro-furo[2,3-b]furan-3-yl ester]: the EC50 in data set [1] was 5.5 nM; in data set [2] (Human immunodeficiency virus 1, MT4, read-out: pEC50 Strain A, mutant HIV strain A, MT4 cells (converted)) it was 2.95 nM; in data set [3] (Human immunodeficiency virus 1, MT4, read-out: pEC50 Strain B, mutant HIV strain B, MT4 cells (converted)), 3.63 nM; in data set [4] (Human immunodeficiency virus 1, MT4, read-out: pEC50 Strain C, mutant HIV strain C, MT4 cells (converted)) it was 4.17 nM; in data set [5] (Human immunodeficiency virus 1, MT4, read-out: pEC50 Strain D, mutant HIV strain D, MT4 cells (converted)), 2.24 nM; in data set [6] (Human immunodeficiency virus 1, MT4, read-out: pEC50 Strain E, mutant HIV strain E, MT4 cells (converted)) it was 3.09 nM. Moreover, the “fold resistance Strain A” value in data set [2] (setting [9]) is 0.5. Besides, the “fold resistance Strain B” value in data set [3] (setting [9]) came to 0.7. For the same compound, the “fold resistance Strain C” value in data set [4] (setting [9]) is recorded as 0.8. Besides, the “fold resistance Strain D” value in data set [5] (setting [9]) stood at 0.4. Also, in data set [6] (setting [9]), the “fold resistance Strain E” value is on record as 0.6. Half-maximal cytotoxicity in data set [7] (CC50 at 5 days) was put at 69200 nM. In addition, the IC50 in data set [8] (Human immunodeficiency virus 1, read-out: pIC50 for the most resistant mutant (converted)) is 7.59 nM; in data set [8] (Human immunodeficiency virus 1, read-out: pIC50 for the most sensitive mutant (converted)), 0.741 nM.
